Data published in patent US5877185A, “Synergistic compositions useful as anti-tumor agents” (priority 1995, dated 1999).
“Also recorded” adds a separate entry of the source.

How the values were obtained:
L 1210 cells = experiment: cytotoxic effect of IABP and INO2 BA, alone and combined, on L 1210 cell growth; type: cell-based, murine; conditions: Mus musculus, L1210, 72 h, three days, read-out: decrease of L 1210 cell proliferation
Procedure: 64 μM INO2 BA decreased L 1210 cell proliferation by approximately 80% over a three day growth period.

[1] = test system: SIVmac239 in CEM ×174 cells; experiment: effect of IABP on SIVmac239 replication, p27 core antigen assay; type: cell-based, SIV
Procedure: CEM ×174 cells (3×10^5 /ml) were infected with SIVmac239 on day 0 and incubated for 3 days (37° C., 5% CO2) before treatment with IABP (0-0.5 mM). The cultures were incubated for an additional 4 days before being replenished with fresh CEM ×174 cells (3×10^5/ml) and IABP. On day 10 the levels of free virus in the supernatants of the cultures were assessed using the SIV p27 core antigen assay (Coulter Corp). The absorbance was measured at 450 nm.
The effect of IABP on the infection cycle of SIV was determined. CEM ×174 cells (3×10^5 /ml) were infected with SIVmac239 on day 0 and incubated for 3 days ([…], 5% CO2) before treatment with IABP (0-0.5 mM). The cultures were incubated for an additional 4 days before being replenished with fresh CEM ×174 cells (3×10^5/ml) and IABP. On day 10 the levels of free virus in the supernatants of the cultures were assessed using the SIV p27 core antigen assay (Coulter Copr.) The absorbance was measured at 450 nm.

[2] = test system: SIVmac239 or virus isolates in CEM ×174 cells; conditions: Chuang et al., submitted (1994); cited from earlier work
cells = conditions: Cole et al.; cited from earlier work
HIV = conditions: Cole et al.; cited from earlier work
[3] = test system: CCHC zinc fingers of pADPRT or p7 NC protein of retroviruses; conditions: cited from earlier work

SMILES: Nc1ccc2oc(=O)ccc2c1I [IABP, 5-iodo-6-amino-1,2-benzopyrone]
- inhibition at 160 µM (L 1210 cells; IABP 160 μM): ~55%
- inhibition at 320 µM (L 1210 cells; IABP 320 μM): ~80%
- inhibition at 480 µM (L 1210 cells; IABP 480 μM): ~93%
- p27 levels ([1]; 0-0.5 mM, day 10): depresses p27 levels proportional to its concentration
- titre of virions in the supernatant ([1]; 0.3 and 0.5 mM IABP): reduced the titre of virions
- sensitivity to addition of BSO [2]: insensitive
- toxicity of IABP (cells): very low; also recorded: no toxic effect on cells; also recorded: non-toxicity
- infectious cycle of HIV (HIV): blocked the infectious cycle of HIV
- influence on CCHC zinc fingers [3]: no influence
